The values that follow come from publication PMC3267046 (Structure(London, England:1993), 2012).

The structures appear in SMILES notation.

Holding throughout (assay type): binding
The target of experiment [1] is T1, Ddn (deazaflavin-dependent nitroreductase, Rv3547) (Mycobacterium tuberculosis, UniProt P9WP15). Nature of the experiment: intrinsic tryptophan fluorescence quenching; also steady-state kinetics (KM […]). Set-up: full-length Ddn / MBP-Ddn fusion.
A further experiment deals with T2, nfa18080 (Nocardia farcinica, UniProt Q5YYT7).
T2 construct: gene NFA_18080; full-length (density starts at residue 5)
T2 sequence (Q5YYT7 1-144): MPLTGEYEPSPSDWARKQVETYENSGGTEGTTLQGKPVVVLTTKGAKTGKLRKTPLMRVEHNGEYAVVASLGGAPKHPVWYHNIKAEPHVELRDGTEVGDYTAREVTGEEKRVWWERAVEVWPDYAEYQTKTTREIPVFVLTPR
Nature of the experiment: crystal structure, […] Å.

Experiment [2] concerns the target T1, Ddn (deazaflavin-dependent nitroreductase, Rv3547). The experiment can be described thus: cocrystal structures (Holo-1 […] Å, Holo-2 […] Å); Trp fluorescence quenching Kd; HSQC NMR. Set-up: […]; full-length Ddn / MBP-Ddn fusion (Kd).
A further experiment deals with T3, nfa33440 (Nocardia farcinica, UniProt Q5YUF0).
T3 construct: gene NFA_33440; full-length (density starting at residue 6)
T3 sequence (Q5YUF0 1-147): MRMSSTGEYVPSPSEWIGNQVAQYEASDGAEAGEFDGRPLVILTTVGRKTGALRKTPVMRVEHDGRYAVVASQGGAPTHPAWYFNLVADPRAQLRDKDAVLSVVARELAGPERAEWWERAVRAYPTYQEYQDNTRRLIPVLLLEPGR
Nature of the experiment: cocrystal structure, […] Å; HSQC NMR.

T1 sequence (P9WP15 whole entry, the tested form may be a part): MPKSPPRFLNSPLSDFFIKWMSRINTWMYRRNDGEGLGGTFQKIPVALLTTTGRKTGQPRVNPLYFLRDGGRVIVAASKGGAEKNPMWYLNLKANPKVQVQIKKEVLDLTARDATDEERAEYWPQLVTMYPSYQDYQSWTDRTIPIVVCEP

Regarding `O=[N+]([O-])c1cn2c(n1)OC[C@@H](OCc1ccc(OC(F)(F)F)cc1)C2` [PA-824, (6S)-2-nitro-6-[4-(trifluoromethoxy)benzyl]oxy-6,7-dihydro-5H-imidazo[2,1-b][1,3]oxazine], binding in experiment [1] was put at a Kd of 31 µM.
As for `C[C@H](OP(=O)(O)OC[C@@H](O)[C@@H](O)[C@@H](O)Cn1c2nc(=O)[nH]c(=O)c-2cc2ccc(O)cc21)C(=O)N[C@@H](CCC(=O)N[C@@H](CCC(=O)O)C(=O)O)C(=O)O` [F420], the “crystal structure, 1.50 Å” value on nfa18080 is on record as “nfa18080 from N. farcinica, was solved by X-ray crystallography in the presence of F420”. The dissociation constant Kd in experiment [2] is 1 µM. Moreover, the “cocrystal structure, 1.80 Å; HSQC NMR” value on nfa33440 is “a cocrystal of nfa33440 with F420 confirmed that the overall structure and coenzyme binding are very similar”.

A word on the Kd: it is the free concentration of one partner at which half of the binding sites on the other are occupied at equilibrium, for simple one-to-one binding.
